Experimental findings from patent US11136291B2, “Antifungal compounds and uses thereof” (Dana-Farber Cancer Institute, Inc., priority 2016, dated 2021) are described below.

Converted amounts (≈) assume the structure as drawn.

This assay relates to Candida glabrata DSY565. As to the kind of experiment: Broth dilution MIC. Conditions: Nakaseomyces glabratus.

Experimental: Antifungal susceptibility testing was carried out using broth dilution assays which examined effects of two-fold dilutions of compounds on cellular growth. The minimum inhibitory concentration (MIC) was defined as the drug concentration at which the optical density was equal to or decreased more than 50% from that of the drug-free culture.

For the compound `N#CCC(=O)NNC(=S)Nc1ccc(Cl)c(Cl)c1` [iKIX1, 2-(2-Cyanoacetyl)-N-(3,4-dichlorophenyl)hydrazinecarbothioamide], it took 12.5 µM (≈ 3.79 µg/mL) to inhibit growth (MIC). That is a double-digit micromolar value.
